Measurements as given in patent US20250154525A1, “PLANT VIRUS MOVEMENT PROTEINS AND METHODS OF USING SAME” (Molecular Transfer, Inc., priority 2016, published 2025).

How the values were obtained:
Assay in all cases: GFP plasmid transfection with DOTMA/DOPE plus plant virus movement protein derived peptides (Example 2)
Format in all cases: cell-based
[1] = system: HuVec Cells; conditions: 42 hours
Method: (§1) Cells were plated to so that on the day of transfection the cells were 70% confluent in 96 well tissue culture plates. A DOMTA/DOPE Lipid solution (1:1 molar ratio) at 2 mg/mL in water were mixed with an equal volume of plant virus movement protein derived peptides that had the nucleic acid binding moiety RRRRRRRRRRRR (SEQ ID NO:109) or KKKKKKKKKKKKKKKK (SEQ ID NO: 102) covalently linked to the N-terminus, or C-terminus of each peptide during peptide synthesis. Peptides were at 2 mg/mL in water. The DOTMA/DOPE and the plant virus movement peptide solution the was diluted 1 to 1 (v/v) in water. DOMTA/DOPE/PEPTIDE solutions were added to 0.1 mL of a plasmid DNA solution (EF1Alpha eGFP plasmid) at 10 μg/mL in OptiMEM.
(§2) All solutions were at room temperature. A volume of 0.2 mL of a 10 μg/mL solution of DNA was aliquoted into each well of a non-tissue cultured treated plate. 1-6 μL of transfection reagents were added to DNA solutions respectively. The transfection reagent and DNA solution was mixed by pipetting up and down twice. Transfection complexes were formed for 10 minutes. After 10 minutes, 0.01 or 0.02 mL of the transfection complex was added to cells. HuVEC, HeLa, human adult keratinocytes, human primary adult fibroblast, and A549 cells all respectively received 0.01 mL of the transfection complex. Human skeletal muscle cells, mouse C2C12 cells, and Jurkat, cells received 0.02 mL of the transfection complex. Cells were incubated for 42 hours at 37° C. at 5% CO2. Plates were read on a fluorescent plate reader. Cells were also examined visually under a microscope to assess the extent of transfection (in terms of the percent of cells transfected) with a fluorescent microscope. Other modes of analysis, for example quantification with B-galactosidase or luciferase reports plasmids can also be used.

[2] = system: Human Primary Fibroblast Cells; conditions: 42 hours
Method: as §1, §2

[3] = system: HeLa Cells; conditions: 1-6 μL of transfection reagents
Method: as §1, §2

[4] = value column 1 of 6, head not given, 1 µL transfection reagent
[5] = value column 3 of 6, head not given, 3 µL transfection reagent
[6] = value column 4 of 6, head not given, 4 µL transfection reagent

Substance | Relative Fluorescence of Transfection of HuVEC Cells ([1]; Transfection Agent 1 μl) [Rf] | Relative Fluorescence of Transfection of HuVEC Cells ([1]; Transfection Agent 1.5 μl) [Rf] | Relative Fluorescence of Transfection of HuVEC Cells ([1]; Transfection Agent 2 μl) [Rf] | Relative Fluorescence of Transfection of HuVEC Cells ([1]; Transfection Agent 3 μl) [Rf] | Relative Fluorescence of Transfection of HuVEC Cells ([1]; Transfection Agent 4 μl) [Rf] | Relative Fluorescence of Transfection of HuVEC Cells ([1]; Transfection Agent 6 μl) [Rf] | Relative Fluorescence of Transfection of Human Primary Fibroblast Cells ([2]; Transfection Agent 1 μl) [Rf] | Relative Fluorescence of Transfection of Human Primary Fibroblast Cells ([2]; Transfection Agent 1.5 μl) [Rf] | Relative Fluorescence of Transfection of Human Primary Fibroblast Cells ([2]; Transfection Agent 2 μl) [Rf] | Relative Fluorescence of Transfection of Human Primary Fibroblast Cells ([2]; Transfection Agent 3 μl) [Rf] | Relative Fluorescence of Transfection of Human Primary Fibroblast Cells ([2]; Transfection Agent 4 μl) [Rf] | Relative Fluorescence of Transfection of Human Primary Fibroblast Cells ([2]; Transfection Agent 6 μl) [Rf] | Relative Fluorescence of Transfection of Hela Cells ([3]; 2 µL transfection reagent) | Relative Fluorescence of Transfection of Hela Cells ([3]; 5 µL transfection reagent) | Relative Fluorescence of Transfection of Hela Cells [3, 4] | Relative Fluorescence of Transfection of Hela Cells [3, 5] | Relative Fluorescence of Transfection of Hela Cells [3, 6]
542 (KKKKKKKKKKKKKKKKGKWERKPIRCAS) [compound 542] | 24827 | 33896 | 42546 | 43231 | 35294 | 29326 | 30818 | 43609 | 46966 | 36343 | 33706 | 31787 | 32901 | 35631 | 9010 | 47293 | 42152
544 (GVKRSYGAARGDDRRRPNVVAPYKAWRRRRRRRRRRRR) [compound 544] | 25788 | 28622 | 31245 | 34718 | 31159 | 28639 | 31368 | 39311 | 37634 | 32892 | 31428 | 28367 | 19151 | 12759 | 10683 | 19877 | 16908
109 (RRRRRRRRRRRR) [compound 109] | 24603 | 25735 | 25421 | 26641 | 26529 | 25907 | 28368 | 30373 | 29858 | 29895 | 30941 | 29386 | 5578 | 8007 | 4157 | 6606 | 8520
545 (KSVPNRTRTYIKLKRLRFKGAPYKAWRRRRRRRRRRRR) [compound 545] | 26545 | 36649 | 46890 | 34047 | 30893 | 27133 | 34309 | 48184 | 37497 | 29067 | 28928 | 29256 | 28529 | 13009 | 11056 | 28943 | 14693
547 (SYVKTVPNRTRTYIKGGGGGRRRRRRRRRRRR) [compound 547] | 24554 | 26172 | 28255 | 32494 | 31180 | 26775 | 29141 | 33704 | 35175 | 35563 | 33951 | 30539 | 9491 | 8829 | 5899 | 10275 | 11241
546 (RTGVKRSYGAARGDDRRRPNVVRRRRRRRRRRRR) [compound 546] | 25990 | 32762 | 37899 | 35528 | 31614 | 27690 | 31980 | 39259 | 41747 | 35020 | 32220 | 29476 | 15022 | 8117 | 15190 | 12772 | 11535
543 (RRRRRRRRRRRRVDFSHVDYGKWERKPIRCASMSRLGLRG) [compound 543] | 26622 | 36742 | 42802 | 40584 | 32754 | 25492 | 30416 | 45401 | 39786 | 33091 | 28648 | 28698 | 42502 | 13793 | 12174 | 38779 | 28451
